In patent US20240327429A1, “[1,3]Thiazolo[4,5-d]-pyrimidon-7-ones as inhibitors of NOX4” (Boehringer Ingelheim International GmbH, priority 2023, published 2024):
Values joined by “and” are separate entries in the source; they are usually repeats but may differ in a detail not shown here. Identical values can stand only once.

Assays:
human hepatocytes = experiment: Evaluation of hepatocyte clearance (metabolic stability); assay type: in vitro ADME; details: % of hepatic blood flow
Protocol: The metabolic degradation of the test compound is assayed in a hepatocyte suspension. Hepatocytes (cryopreserved) are incubated in Dulbecco's modified eagle medium (supplemented with […] glucagon/500 mL, 2.5 mg insulin/500 mL and 3.75 mg/500 mL hydrocortisone) containing 5% human serum.
Following a 30 min preincubation in an incubator (37° C., 10% CO2) 5 μl of test compound solution (80 μM; from 2 mM in DMSO stock solution diluted 1:25 with medium) are added into 395 μl hepatocyte suspension (cell density in the range 0.25-5 Mio cells/mL, typically 1 Mio cells/mL; final concentration of test compound 1 μM, final DMSO concentration 0.05%).
The cells are incubated for six hours (incubator, orbital shaker) and samples (25 μl) are taken at 0, 0.5, 1, 2, 4 and 6 hours. Samples are transferred into acetonitrile and pelleted by centrifugation (5 min). The supernatant is transferred to a new 96-deepwell plate, evaporated under nitrogen and resuspended.
Decline of Parent Compound is Analyzed by HPLC-MS/MS.
CLint is Calculated as Follows:
CL_[…]=Dose/AUC=(C0/CD)/(AUD+clast/k)×1000/60. • C0: initial concentration in the incubation [μM], CD: cell density of vital cells [10^6 cells/mL], AUD: area under the data [μM×h], clast: concentration of last data point [μM], • k: slope of the regression line for parent decline [h-1].
The calculated in vitro hepatic intrinsic clearance can be scaled up to the intrinsic in vivo hepatic clearance and used to predict hepatic in vivo blood clearance (CL) by the use of a liver model (well stirred model).
CL_[…]_INVIVO[ml/min/kg]=(CL_[…][μL/min/10^6 cells]×hepatocellularity[10^6 cells/g liver]×liver factor[g/kg bodyweight])/1000
CL[ml/min/kg]=CL_[…]_INVIVO[ml/min/kg]×hepatic blood flow[ml/min/kg]/(CL_[…]_INVIVO[ml/min/kg]+hepatic blood flow[ml/min/kg])

human NOX4 (hNOX4) = molecular target: T1, human NOX4 (hNOX4) (Homo sapiens, UniProt Q9NPH5); experiment: cell-based
T1 sequence (Q9NPH5 1-578): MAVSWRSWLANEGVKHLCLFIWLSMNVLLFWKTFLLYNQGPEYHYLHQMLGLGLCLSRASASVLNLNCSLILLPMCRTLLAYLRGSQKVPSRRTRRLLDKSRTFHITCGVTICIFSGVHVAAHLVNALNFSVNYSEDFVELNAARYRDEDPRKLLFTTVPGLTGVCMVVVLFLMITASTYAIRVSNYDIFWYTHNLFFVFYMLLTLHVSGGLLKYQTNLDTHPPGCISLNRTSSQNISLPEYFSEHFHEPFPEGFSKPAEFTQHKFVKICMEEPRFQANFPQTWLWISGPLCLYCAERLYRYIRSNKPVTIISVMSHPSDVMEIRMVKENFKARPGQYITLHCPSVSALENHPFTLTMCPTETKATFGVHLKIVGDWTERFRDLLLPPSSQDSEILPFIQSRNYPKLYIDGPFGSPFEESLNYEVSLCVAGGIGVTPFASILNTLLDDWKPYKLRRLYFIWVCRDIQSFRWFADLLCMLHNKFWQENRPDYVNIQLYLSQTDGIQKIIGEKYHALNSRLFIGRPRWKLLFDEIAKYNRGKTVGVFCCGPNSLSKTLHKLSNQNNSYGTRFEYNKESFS
T1 sequence (P13498 2-195 partner limits assumed): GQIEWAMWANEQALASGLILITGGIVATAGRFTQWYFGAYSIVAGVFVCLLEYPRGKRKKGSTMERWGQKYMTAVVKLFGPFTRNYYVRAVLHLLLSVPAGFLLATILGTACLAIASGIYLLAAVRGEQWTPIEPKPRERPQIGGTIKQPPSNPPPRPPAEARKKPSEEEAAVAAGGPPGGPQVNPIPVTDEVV
Protocol: The synthetic gene phNOX4_DNA3_1_Zeo (Accession: AAF68973) is assembled from synthetic oligonucleotides and/or PCR products. The fragment is cloned into pcDNA3.1_Zeo_A011 using NheI and XhoI cloning sites. The plasmid DNA is purified from transformed bacteria and its concentration is determined by UV spectroscopy. The final construct is verified by sequencing. The plasmid is transfected via electroporation (Amaxa electroporation device) in combination with Nucleofector Kit V. Selection of NOX4 overexpressing genes is achieved using selection antibiotic Zeocin.
The inhibitory activity of the example compounds of the invention is determined using the following procedure:
Cells are cultured in the Dulbecco's Modified Eagle Medium (DMEM) media containing 4.5 g/L glucose supplemented with 10% fetal calf serum and 250 μg/ml Zeocin in an incubator at 37° C. with 5% CO2. For the assay, cells are seeded in 384 well plates.
After incubation Lumigen HyPerBlu™ is added and cells are incubated for additional 30 min at 24° C. in a humidified incubator. Next, luminescence is measured using an Envision Multimode Plate reader to determine levels of produced H2O2 in the wells.

human NOX1 (hNOX1) = molecular target: T2, human NOX1 (hNOX1) (Homo sapiens, UniProt Q9Y5S8); experiment: NOX1 inhibition assay (L-012), HEK293 cells stably overexpressing human NOX1; assay type: cell-based; details: HEK293-hNOX1, PMA stimulated
T2 construct: pLV-CMV-hNOX1-puro (NM_007052.5); host or cells: HEK293 (CLS GmbH), lentiviral transduction
T2 sequence (Q9Y5S8 1-564): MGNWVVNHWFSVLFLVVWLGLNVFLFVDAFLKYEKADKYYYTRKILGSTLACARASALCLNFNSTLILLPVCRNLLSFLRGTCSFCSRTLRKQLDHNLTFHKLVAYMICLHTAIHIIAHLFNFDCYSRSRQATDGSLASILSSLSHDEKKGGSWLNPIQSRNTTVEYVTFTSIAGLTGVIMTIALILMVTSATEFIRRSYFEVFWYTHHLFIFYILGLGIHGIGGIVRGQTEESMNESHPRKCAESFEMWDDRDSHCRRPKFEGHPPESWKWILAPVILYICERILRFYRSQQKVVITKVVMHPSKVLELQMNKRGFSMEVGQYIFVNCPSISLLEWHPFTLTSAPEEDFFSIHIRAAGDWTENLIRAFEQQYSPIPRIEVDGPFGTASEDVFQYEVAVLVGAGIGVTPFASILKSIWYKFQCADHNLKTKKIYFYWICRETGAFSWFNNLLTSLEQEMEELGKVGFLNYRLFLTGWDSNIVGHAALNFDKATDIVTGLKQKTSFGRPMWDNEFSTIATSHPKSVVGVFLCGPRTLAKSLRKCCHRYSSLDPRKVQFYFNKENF
T2 sequence (P13498 2-195 partner limits assumed): T1 sequence (P13498 2-195 partner limits assumed)
From the text: Plasmids are Purchased from Vectorbuilder. • for HEK-hNOX1 all necessary subunits are cloned accordingly: • pLV-CMV-hNOX1-puro (NM_007052.5) • pLV-CMV-hNOXO1-blas (NM_172168.3) • pLV-CMV-hp22phox-hygro (NM_000101.4) • pLV-CMV-hNOXA1-neo (NM_006647.2) • for HEK-hNOX3 • pLV-CMV-hNOX3-puro (NM_015718.3)
3rd generation lentiviral particles are produced in HEK293 suspension cells by transient transfection of three helper and expression plasmids. Crucial lentivirus supernatants are harvested, clarified by filtration and concentrated by precipitation. Lentivirus titers are determined in transducing units in (TU/mL) by transduction of HT1080 cells and colony forming assay. Parental HEK293 cells, purchased from CLS GmbH, are transduced with replication-incompetent 3rd generation lentiviral particles (MOI 2) and expanded for at least 2 weeks before cryopreservation of tested lots. During cultivation, medium is changed three times per week and cells are sub-cultured at least once per week. Selection antibiotics are added according to the plasmids (1 μg/ml puromycin, 1.5 μg/ml blasticidin, 200 μg/ml G418 and 100 μg/ml hygromycin).
Evaluation of the NOX4 inhibitors on NOX1 activity is assessed in HEK293 cells stably overexpressing human NOX1 (hNOX1).
Lastly, 8-amino-5-chloro-2,3-dihydro-7-phenyl-pyrido[3,4-d]pyridazine-1,4-dione sodium salt (L-012, CAS 143556-24-5) is added at 400 μM to all wells, and cells are incubated in an incubator for an additional 3 h. Afterwards luminescence is measured with a SpectraMax Paradigm Microplate Reader.

NOX4 = molecular target: T3, NOX4 (Homo sapiens, UniProt Q9NPH5); details: modified HEK cells, Amplex Red; read-out: NOX4 IC50 [μM] as disclosed in WO2016207785; cited from earlier work
T3 construct: host or cells: modified HEK cells
T3 sequence (Q9NPH5 1-578): T1 sequence (Q9NPH5 1-578)
T3 sequence (P13498 2-195 partner limits assumed): T1 sequence (P13498 2-195 partner limits assumed)

SMILES | clearance in human hepatocytes (human hepatocytes) [% QH] | IC50 (human NOX4 (hNOX4)) | IC50 (human NOX1 (hNOX1)) [nM] | IC50 (NOX4) [µM]
O=C(Nc1ccc2oc(N3CCC34COC4)nc2c1)c1ccc2c(c1)CCO2 [Example 15 of WO2016207785] | 29 | – | – | –
O=C(Nc1ccc2c(c1)CCO2)c1ccc2oc(N3CCC34COC4)nc2c1 [Example 80] | 46 | – | – | –
O=c1c2scnc2nc(SCc2ccc(Cl)cc2)n1-c1cccnc1 [reference compound] | – | 5450 nM | – | –
O=c1c2scnc2nc(SCc2c(F)cc(F)cc2F)n1-c1cncc(F)c1 [reference compound] | – | 1650 nM | – | –
Cc1cc(F)ccc1CSc1nc2ncsc2c(=O)n1-c1cccnc1 [reference compound] | – | 8120 nM | – | –
O=c1c2scnc2nc(SCc2cccc(F)c2)n1-c1ccc(O)cc1 [Example 1, 5-((3-Fluorobenzyl)thio)-6-(4-hydroxyphenyl)thiazolo[4,5-d]pyrimidin-7(6H)-one] | 52 | 560 nM and 555 nM | > 100000 | 0.34
